pIC50: −log10 of the molar value. Where a SMILES comes first, the peptide text is derived from it. The star is where a group is joined. X1 = [N-]=[N+]=N[C@@H](CCCNCCN1CCNCC1)C(=O)*; X5 = [N-]=[N+]=N[C@@H](CCCNCCNCCN)C(=O)*; X2 = [N-]=[N+]=N[C@@H](CCCNCCCCN)C(=O)*; X4 = [N-]=[N+]=N[C@@H](CCCNCCCN)C(=O)*; X3 = [N-]=[N+]=N[C@@H](CCCNCCN)C(=O)*
Each molecule was assayed against Neurotensin receptor type 1 (Homo sapiens, UniProt P30989) (assay: Compound was evaluated for the binding affinity against human neurotensin receptor (hNTR)-1 expressed in CHO cells).
Format: cell-based

Sequence of Neurotensin receptor type 1 (P30989 whole entry): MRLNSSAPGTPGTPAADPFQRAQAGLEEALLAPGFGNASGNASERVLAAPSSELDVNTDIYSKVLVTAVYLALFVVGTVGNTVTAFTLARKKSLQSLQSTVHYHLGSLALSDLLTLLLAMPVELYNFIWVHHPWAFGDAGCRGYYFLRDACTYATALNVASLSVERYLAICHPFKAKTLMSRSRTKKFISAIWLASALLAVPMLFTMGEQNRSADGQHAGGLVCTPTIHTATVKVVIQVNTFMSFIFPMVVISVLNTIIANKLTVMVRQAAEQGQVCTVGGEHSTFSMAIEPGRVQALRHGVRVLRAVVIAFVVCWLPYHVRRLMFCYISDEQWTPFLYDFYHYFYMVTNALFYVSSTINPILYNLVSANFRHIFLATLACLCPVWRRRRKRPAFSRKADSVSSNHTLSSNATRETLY

pIC50 | Compound
8.03 | CC[C@H](C)[C@H](NC(=O)[C@H](Cc1ccc(O)cc1)NC(=O)[C@@H]1CCCN1C(=O)[C@H](CCCNCCCCN)N=[N+]=[N-])C(=O)N[C@@H](CC(C)C)C(=O)O (X2-PYIL-OH)
8.06 | CC[C@H](C)[C@H](NC(=O)[C@H](Cc1ccc(O)cc1)NC(=O)[C@@H]1CCCN1C(=O)[C@H](CCCNCCNCCN)N=[N+]=[N-])C(=O)N[C@@H](CC(C)C)C(=O)O (X5-PYIL-OH)
7.55 | CC[C@H](C)[C@H](NC(=O)[C@H](Cc1ccc(O)cc1)NC(=O)[C@@H]1CCCN1C(=O)[C@H](CCCNCCN1CCNCC1)N=[N+]=[N-])C(=O)N[C@@H](CC(C)C)C(=O)O (X1-PYIL-OH)
7.72 | CC[C@H](C)[C@H](NC(=O)[C@H](Cc1ccc(O)cc1)NC(=O)[C@@H]1CCCN1C(=O)[C@@H](N)CCCNC(=N)N)C(=O)N[C@@H](CC(C)C)C(=O)O
7.83 | CC[C@H](C)[C@H](NC(=O)[C@H](Cc1ccc(O)cc1)NC(=O)[C@@H]1CCCN1C(=O)[C@H](CCCNCCN)N=[N+]=[N-])C(=O)N[C@@H](CC(C)C)C(=O)O (X3-PYIL-OH)
8.41 | CC[C@H](C)[C@H](NC(=O)[C@H](Cc1ccc(O)cc1)NC(=O)[C@@H]1CCCN1C(=O)[C@H](CCCNCCCN)N=[N+]=[N-])C(=O)N[C@@H](CC(C)C)C(=O)O (X4-PYIL-OH)
8.89 | CC[C@H](C)[C@H](NC(=O)[C@H](Cc1ccc(O)cc1)NC(=O)[C@@H]1CCCN1C(=O)[C@H](CCCN)NC(=O)[C@@H](N)CCCN)C(=O)N[C@@H](CC(C)C)C(=O)O

Reference: ChEMBL document CHEMBL1133047, “Synthesis of neurotensin(9-13) analogues exhibiting enhanced human neurotensin receptor binding affinities” (Bioorg Med Chem Lett, 2000)
